Calls of active or inactive are those of the source. The calls are words filed in the database; no cut-off is given here.
Molecular target: T1, Histone deacetylase 8 (Homo sapiens, UniProt Q9BY41)
T1 sequence (Q9BY41 whole entry): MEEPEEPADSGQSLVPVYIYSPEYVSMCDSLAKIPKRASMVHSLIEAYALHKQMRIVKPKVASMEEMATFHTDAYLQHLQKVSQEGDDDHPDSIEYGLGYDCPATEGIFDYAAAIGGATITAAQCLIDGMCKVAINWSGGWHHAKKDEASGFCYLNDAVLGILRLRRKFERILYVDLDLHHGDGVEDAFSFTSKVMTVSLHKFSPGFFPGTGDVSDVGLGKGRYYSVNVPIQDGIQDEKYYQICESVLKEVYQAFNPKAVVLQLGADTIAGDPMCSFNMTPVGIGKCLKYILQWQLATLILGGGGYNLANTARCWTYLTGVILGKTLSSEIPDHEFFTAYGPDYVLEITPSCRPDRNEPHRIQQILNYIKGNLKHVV
Assay: Inhibition of HDAC8 (unknown origin) by SAMDI high throughput mass spectrometry

IC50 [µM] | SMILES
140 | COc1ccc(Cn2ccc3ccc(-c4noc(=O)[nH]4)cc32)cc1
150 | COc1ccc(Cn2ccc3ccc(C(=O)Nc4ccccc4N)cc32)cc1
> 1000 | COc1ccc(Cn2ccc3ccc(C(=O)N/N=C\c4ccccc4O)cc32)cc1
> 1000 | COc1ccc(Cn2ccc3ccc(C(=O)NS(C)(=O)=O)cc32)cc1
120 | CCC(=O)c1ccc2ccn(Cc3ccc(OC)cc3)c2c1
210 | COc1ccc(Cn2ccc3ccc(C(=O)c4nccs4)cc32)cc1
360 | COc1ccc(Cn2ccc3ccc(C(=O)Nc4ccccc4SC)cc32)cc1
170 | COc1ccc(Cn2ccc3ccc(C(=O)NCCO)cc32)cc1
340 | COc1ccc(Cn2ccc3ccc(NC(=O)c4ccccc4SC)cc32)cc1
> 1000 | COc1ccc(Cn2ccc3ccc(-c4noc(C(F)(F)F)n4)cc32)cc1
320 | COc1ccc(Cn2ccc3ccc(C(=O)NS(=O)(=O)N(C)C)cc32)cc1
890 | COc1ccc(Cn2ccc3ccc(C(=O)NCC(C)O)cc32)cc1 (stereo not given)
200 | COc1ccc(Cn2ccc3ccc(C(=O)c4cc(C)on4)cc32)cc1
340 | COc1ccc(Cn2ccc3ccc(/C(N)=N/O)cc32)cc1
570 | COc1ccc(Cn2ccc3ccc(C(=O)C(F)(F)F)cc32)cc1
130 | COc1ccc(Cn2ccc3ccc(NC(=O)c4ccccc4N)cc32)cc1
490 | COc1ccc(Cn2ccc3ccc(NC(=O)c4ccccn4)cc32)cc1
> 1000 | COc1ccc(Cn2ccc3ccc(-c4nn[nH]n4)cc32)cc1
330 | COc1ccc(Cn2ccc3ccc(-c4noc(=S)[nH]4)cc32)cc1
240 | CCC(=O)Cc1ccc2ccn(Cc3ccc(OC)cc3)c2c1
360 | COc1ccc(Cn2ccc3ccc(NC(=O)c4ccccc4O)cc32)cc1
220 | COc1ccc(Cn2ccc3ccc(C(=O)Nc4ccccc4O)cc32)cc1

SMILES | IC50 [µM]
NC(Cc1ccc(Cl)cc1Cl)C(=O)N1Cc2ccccc2C1 (stereo not given) | 7.9

Tested on: not listed separately
Assay: Binding affinity to Zinc ion assessed as metal chelating activity at approximately 1 uM

Activity | SMILES
Active | COc1ccc(Cn2ccc3ccc(C(=O)NO)cc32)cc1

Tested on: not listed separately
Assay: Binding affinity to Zinc ion assessed as metal chelating activity

SMILES | Activity
NC(Cc1ccc(Cl)cc1Cl)C(=O)N1Cc2ccccc2C1 (stereo not given) | inactive

— ChEMBL document CHEMBL5576062 (Bioorg Med Chem Lett, 2024)
